According to patent US20250057790A1, “AN INJECTABLE PHARMACEUTICAL COMPOSITION FOR THE TREATMENT OF RESPIRATORY DISEASES IN ANIMALS” (priority 2021, published 2025):
Values after ≈ are worked out from the molar mass of the structure shown.

Tests used:
[1] = tested on: microbes that cause respiratory disease in animals; assay: Activity against the microbes that cause respiratory disease in animals (statement); assay type: cell-based
[2] = Pharmacokinetic analysis in blood plasma of cattle after single SC administration; assay type: in vivo; conditions: for concentration at 0.25 h / concentration at 0.5 h / concentration at 1 h / concentration at 2 h / concentration at 4 h / concentration at 7 h / concentration at 10 h / concentration at 24 h / concentration at 32 h / concentration at 48 h / concentration at 72 h: bovine, plasma, sc, 10 mg/kg, cattle; for concentration at 0.25 h: 0.25 h after administration; for concentration at 0.5 h: 0.5 h after administration; for concentration at 1 h: 1 h after administration; for concentration at 2 h: 2 h after administration; for concentration at 4 h: 4 h after administration; for concentration at 7 h: 7 h after administration; for concentration at 10 h: 10 h after administration; for concentration at 24 h: 24 h after administration; for concentration at 32 h: 32 h after administration; for concentration at 48 h: 48 h after administration; for concentration at 72 h: 72 h after administration
Description: This study determined the bioavailability, the pharmacokinetic profile of Compound A formulations for subcutaneous (SC) injection in the blood plasma of cattle after a single subcutaneous (SC) administration of 10 mg/kg body weight. Concentrations in the blood plasma and bronchial epithelial lining fluid concentrations were determined. Additional tissues were collected post mortem for compound concentration determination.
Compound A was formulated as described in Examples 1 and 2 above. The aqueous solution formulation was Compound A 15% w/v, 15 w/v Kollisolv P124, 6% w/v benzyl alcohol, 7% w/v citric acid, and QS Water, pH 5.2. The oily suspension formulation was Compound A 17.5% w/v, suspended with 0.1% Kolliphor HS, and QS Miglyol812.
Samples were collected into K-EDTA coated Monovettes®. The samples were collected from the Vena jugularis externa. Preferred was the left side of the body, on the opposite side of administration.
The tubes were gently shaken to ensure proper mixing of blood with the anti-coagulant and placed in ice water until centrifugation. K-EDTA-Blood samples were centrifuged at approximately 4° C. and a relative centrifugal force of 2000 for 10 min. Within 2 hours after collection, two aliquots (1, 2) of approximately 0.5 mL blood plasma were pipetted off each sample into labeled plastic (polypropylene) freezer vials.
Pharmacokinetic (PK) parameters (Table 10-2) were calculated using the Phoenix WinNonlin 8.1 software. PK parameters (at least: Cmax, Tmax, AUClast, HL_Lambda_Z, VZ_F, MRTlast, CL_F and F %) to describe the PK profile after SC compound administration.

[3] = tested on: H. somni; assay: MIC determination, agar dilution (chocolate agar GC II), field isolates; assay type: cell-based, Histophilus somni
Description: (§1) This study determined the in vitro activity Compound (A), the enantiomer of the compound of Formula (I), against different isolates of Actinobacillus (A.) pleuropneumoniae, Bordetella (B.) bronchiseptica, Mannheimia (M.) haemolytica, Pasteurella (P.) multocida, Histophilus (H.) somni and Glaesserella parasuis collected in different European countries.
(§2) The in vitro activity was determined by measuring the minimum inhibitory concentrations (MIC) according to CLSI document VET01-A4 [1] and by calculating MIC50 and MIC90.
(§3) A total of 193 field isolates were tested: 31 of A. pleuropneumoniae, 20 of B. bronchiseptica, 20 of H. somni, 20 H. parasuis, 55 of M. haemolytica and 47 of P. multocida. All bacteria were isolated from the respiratory tract of cattle and swine suffering from respiratory disease. All isolates were epidemiologically unrelated as specified by the different suppliers. E. coli ATCC 25922 (ID 6105) and M. haemolytica ATCC 33396 (ID 6374) were used as reference strains for testing isolates of B. bronchiseptica, M. haemolytica and P. multocida. A. pleuropneumoniae ATCC 27090 (ID 6314) and H. somni ATCC 700025 (ID 6315) were used as reference strains for the testing isolates of A. pleuropneumoniae, H. somni and Glaesserella parasuis. Additionally, H. parasuis (G. parasuis) ATCC 19417 was included as type strain for growth control.
(§4) • Mueller-Hinton agar (Becton Dickinson, Lot 9224866) • Cation-adjusted Mueller-Hinton broth, (CAVHB, Becton Dickinson, Lot 8190586) • Sheep blood, defibrinated (Thermo Scientific, Lot 37091500) • Chocolate agar, GC II with IsoVitalex™ (Becton Dickinson, Lot 0147695) • GC-agar base (Becton Dickinson, Lot 6082608) • Hemoglobin solution (Becton Dickinson, Lot 7142854) • Vitox (Oxoid, Lot 2344976) • Veterinary fastidious Medium (VFM), prepared according to CLSI document VET01-A4 [1], containing: • CAMHB (Becton Dickinson, Lot 8190586) • Yeast extract (Sigma, Lot BCBS5470V) • Lysed horse blood (Thermo Scientific, Lot 35875000) • Supplement C™ (Becton Dickinson, Lot 8030960) • Deionized water
(§5) The MICs for all isolates except for H. somni and Glaesserella parasuis isolates, were determined by using the broth-microdilution method according to CLSI document VET01-A4 [1]. For isolates of H. somni and Glaesserella parasuis the agar-dilution method with chocolate agar GC II, was used. The test concentration range for all compounds was 16 μg/mL to 0.016 μg/mL.
For isolates tested by the agar-dilution method, results were interpreted according to the CLSI document VET01-S3 [2]. […] The MIC50 and MIC90 represent the concentrations at which a minimum of 50% or 90% of the isolates tested are inhibited.

[4] = tested on: A. pleuropneumoniae; assay: MIC determination, broth-microdilution (CLSI VET01-A4), field isolates; assay type: cell-based, Actinobacillus pleuropneumoniae
Description: as §1, §2, §3, §4, §5
The MIC results were interpreted according to the CLSI document VET01-S3 [2]. […] All wells containing test item were compared with the growth-control wells. The lowest concentration of compound at which no visible growth (i.e. no turbidity) was detected by the unaided eye was recorded as the MIC. […]

[5] = tested on: H. somni; assay: MIC determination, broth microdilution, field isolates; assay type: cell-based, Histophilus somni
Description: as §1, §2, §3, §4
[…] […] The test concentration range for all compounds was 16 μg/mL to 0.016 μg/mL.
The MIC results were interpreted according to the CLSI document VET01-S3 [2]. […] All wells containing test item were compared with the growth-control wells. The lowest concentration of compound at which no visible growth (i.e. no turbidity) was detected by the unaided eye was recorded as the MIC. If a “trailing endpoint” occurs, the MIC is defined as the first concentration at which a markedly reduction (about 90%) of the inoculum is observed.
[…] […] The MIC50 and MIC90 represent the concentrations at which a minimum of 50% or 90% of the isolates tested are inhibited.

[6] = both aqueous solution group and oily suspension group, SC 10 mg/kg
[7] = SC 10 mg/kg 15% aqueous solution
[8] = SC 10 mg/kg 17.5% oily suspension
[9] = Actinobacillus pleuropneumoniae, 31 isolates, broth microdilution

## COCCNCc1ccc(C#Cc2ccc(C(=O)N[C@H](C(=O)NO)C(C)(C)N)cc2)cc1 [Compound A]
[1]
  Activity against the microbes that cause respiratory disease in animals: activity against the microbes that cause respiratory disease in animals
[2]; [6]
  Compound persistence in cattle: around 11 h
  Period of constant plasma plateau levels after treatment: 4 to 10 h
  Time for which compound was detected in bovine plasma, on average: 72 h
[2]; [7]
  concentration at 0.25 h: 1440 ng/mL
  concentration at 0.5 h: 1630 ng/mL
  concentration at 1 h: 1260 ng/mL
  concentration at 2 h: 567 ng/mL
  concentration at 4 h: 363 ng/mL
  concentration at 7 h: 395 ng/mL
  concentration at 10 h: 320 ng/mL
  concentration at 24 h: 47 ng/mL
  concentration at 32 h: 22 ng/mL
  concentration at 48 h: 11.5 ng/mL
  concentration at 72 h: 6.55 ng/mL
[2]; [8]
  concentration at 0.25 h: 1220 ng/mL
  concentration at 0.5 h: 1090 ng/mL
  concentration at 1 h: 571 ng/mL
  concentration at 2 h: 413 ng/mL
  concentration at 4 h: 356 ng/mL
  concentration at 7 h: 433 ng/mL
  concentration at 10 h: 319 ng/mL
  concentration at 24 h: 56.5 ng/mL
  concentration at 32 h: 30.8 ng/mL
  concentration at 48 h: 13.2 ng/mL
  concentration at 72 h: 7.28 ng/mL
[3]; Histophilus somni, 20 isolates
  MIC50: 1 µg/mL (≈ 2.28 µM)
  MIC90: 2 µg/mL (≈ 4.56 µM)
[3]; of 20 isolates tested
  Distribution of MICs: number of isolates with MIC 0.25 μg/mL: 1
  Distribution of MICs: number of isolates with MIC 0.5 μg/mL: 1
  Distribution of MICs: number of isolates with MIC 1 μg/mL: 14
  Distribution of MICs: number of isolates with MIC 2 μg/mL: 4
[4]; [9]
  MIC50: 1 µg/mL (≈ 2.28 µM)
  MIC90: 2 µg/mL (≈ 4.56 µM)
[4]; of 31 isolates tested
  Distribution of MICs: number of isolates with MIC 1 μg/mL: 22
  Distribution of MICs: number of isolates with MIC 2 μg/mL: 9
[5]; Histophilus somni, 20 isolates
  MIC50: 0.5 µg/mL (≈ 1.14 µM)
  MIC90: 1 µg/mL (≈ 2.28 µM)
[5]; of 20 isolates tested
  Distribution of MICs: number of isolates with MIC 0.125 μg/mL: 1
  Distribution of MICs: number of isolates with MIC 0.25 μg/mL: 5
  Distribution of MICs: number of isolates with MIC 0.5 μg/mL: 8
  Distribution of MICs: number of isolates with MIC 1 μg/mL: 5
  Distribution of MICs: number of isolates with MIC 2 μg/mL: 1
